The values that follow come from ChEMBL document CHEMBL1130818, “High affinity, selective neurokinin 2 and neurokinin 3 receptor antagonists from a common structural template” (Bioorg Med Chem Lett, 1998).

One may read the IC50 as the concentration that inhibits the measured activity by half.

The target of one assay is T1, Neuromedin-K receptor (Homo sapiens, UniProt P29371).
T1 sequence (P29371 whole entry): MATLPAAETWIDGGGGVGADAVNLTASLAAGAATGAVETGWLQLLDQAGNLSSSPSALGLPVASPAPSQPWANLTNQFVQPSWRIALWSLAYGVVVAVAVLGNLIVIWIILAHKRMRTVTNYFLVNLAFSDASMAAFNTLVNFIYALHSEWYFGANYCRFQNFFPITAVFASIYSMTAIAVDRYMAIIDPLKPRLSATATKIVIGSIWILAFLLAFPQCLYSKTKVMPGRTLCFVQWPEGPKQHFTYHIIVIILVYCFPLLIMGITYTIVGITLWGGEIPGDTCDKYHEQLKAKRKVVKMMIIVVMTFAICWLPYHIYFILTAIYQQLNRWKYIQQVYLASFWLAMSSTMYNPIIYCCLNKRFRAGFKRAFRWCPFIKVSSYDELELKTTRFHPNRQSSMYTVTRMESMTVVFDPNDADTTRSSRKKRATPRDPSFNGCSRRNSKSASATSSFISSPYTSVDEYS
Description: Compound was evaluated for affinity towards human Neurokinin NK3 receptor.

For the next assay, the target named is T2, Substance-K receptor (Homo sapiens, UniProt P21452).
T2 sequence (P21452 whole entry): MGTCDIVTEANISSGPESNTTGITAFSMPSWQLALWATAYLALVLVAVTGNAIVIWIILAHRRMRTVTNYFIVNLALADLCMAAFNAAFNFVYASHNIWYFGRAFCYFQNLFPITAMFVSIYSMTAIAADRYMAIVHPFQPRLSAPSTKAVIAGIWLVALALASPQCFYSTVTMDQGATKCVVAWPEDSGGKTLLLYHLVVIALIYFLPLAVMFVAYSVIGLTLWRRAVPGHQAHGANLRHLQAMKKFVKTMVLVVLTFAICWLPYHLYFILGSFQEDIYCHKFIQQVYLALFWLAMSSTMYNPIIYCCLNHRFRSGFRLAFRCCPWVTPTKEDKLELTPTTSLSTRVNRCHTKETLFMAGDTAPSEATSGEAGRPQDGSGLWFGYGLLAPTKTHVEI
Description: Compound was evaluated for affinity towards human Neurokinin NK2 receptor.

A further assay concerns the target Substance-P receptor (Homo sapiens, UniProt P25103). Description: Compound was evaluated for affinity towards human Neurokinin NK1 receptor.

Chain of Substance-P receptor (P25103 whole entry): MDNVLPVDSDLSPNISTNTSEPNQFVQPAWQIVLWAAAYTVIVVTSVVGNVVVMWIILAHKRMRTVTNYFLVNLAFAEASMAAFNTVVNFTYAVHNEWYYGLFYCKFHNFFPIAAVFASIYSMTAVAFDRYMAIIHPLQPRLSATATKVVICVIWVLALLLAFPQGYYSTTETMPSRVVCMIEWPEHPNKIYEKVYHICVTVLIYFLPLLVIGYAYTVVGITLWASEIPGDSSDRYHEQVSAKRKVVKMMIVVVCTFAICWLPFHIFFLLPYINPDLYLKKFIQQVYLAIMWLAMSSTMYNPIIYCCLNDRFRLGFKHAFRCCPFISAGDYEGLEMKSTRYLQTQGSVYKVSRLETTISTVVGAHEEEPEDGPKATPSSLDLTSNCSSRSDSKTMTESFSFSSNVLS

In the case of `O=C1CCC(CCCN2CCC(n3c(=O)[nH]c4ccccc43)CC2)(c2ccc(Cl)c(Cl)c2)CN1Cc1ccccc1` (configuration not stated), the figures for the concentration for half-maximal inhibition (IC50) against Neuromedin-K receptor, against Substance-K receptor and against Substance-P receptor were 539 nM, 6.4 nM and 743 nM, respectively.
The corresponding values for `O=C(c1ccccc1)N1CCCC(CCCN2CCC3(CCc4ccccc43)CC2)(c2ccc(Cl)c(Cl)c2)C1` (configuration not stated) are 2.6 nM, 204 nM and 272 nM.
On the same counts, the results for `CC(=O)C1(c2ccccc2)CCN(CCCC2(c3ccc(Cl)c(Cl)c3)CCC(=O)N(Cc3ccccc3)C2)CC1` (configuration not stated) are 19 nM, 3.9 nM and 1030 nM.
On the same counts, the results for `O=C(c1ccccc1)N1CCCC(CCCN2CCC3(CC2)CN(c2ccccc2)NC3=O)(c2ccc(Cl)c(Cl)c2)C1` (configuration not stated) are 6.8 nM, 50 nM and 108 nM.
As for `CC(=O)C1(c2ccccc2)CCN(CCCC2(c3ccc(Cl)c(Cl)c3)CCCN(C(=O)c3ccccc3)C2)CC1` (configuration not stated), the half-inhibitory concentration (IC50) against Neuromedin-K receptor worked out at 1.5 nM; against Substance-K receptor, 389 nM; on Substance-P receptor it was 460 nM.
On the same counts, the results for `CS(=O)(=O)N1CC2(CCN(CCCC3(c4ccc(Cl)c(Cl)c4)CCC(=O)N(Cc4ccccc4)C3)CC2)c2ccccc21` (configuration not stated) are 25 nM, 2.2 nM and 763 nM.
The corresponding values for `O=C1CCC(CCCN2CCC3(CC2)CN(c2ccccc2)NC3=O)(c2ccc(Cl)c(Cl)c2)CN1Cc1ccccc1` (configuration not stated) are 127 nM, 2.5 nM and 892 nM.
The corresponding values for `CS(=O)(=O)N1CC2(CCN(CCCC3(c4ccc(Cl)c(Cl)c4)CCCN(C(=O)c4ccccc4)C3)CC2)c2ccccc21` (configuration not stated) are 1.2 nM, 177 nM and 497 nM.
With `O=C(c1ccccc1)N1CCCC(CCCN2CCC(n3c(=O)[nH]c4ccccc43)CC2)(c2ccc(Cl)c(Cl)c2)C1` (configuration not stated), the half-inhibitory concentration (IC50) on Neuromedin-K receptor amounted to 7.9 nM; against Substance-K receptor, 348 nM; on Substance-P receptor it was 379 nM.
